Values quoted from earlier work, collected in publication PMC9353746 (ACS chemical neuroscience, 2021).

Target: T1, recombinant A1 adenosine receptor (human) (Homo sapiens, UniProt P30542)
T1 sequence (P30542 1-326): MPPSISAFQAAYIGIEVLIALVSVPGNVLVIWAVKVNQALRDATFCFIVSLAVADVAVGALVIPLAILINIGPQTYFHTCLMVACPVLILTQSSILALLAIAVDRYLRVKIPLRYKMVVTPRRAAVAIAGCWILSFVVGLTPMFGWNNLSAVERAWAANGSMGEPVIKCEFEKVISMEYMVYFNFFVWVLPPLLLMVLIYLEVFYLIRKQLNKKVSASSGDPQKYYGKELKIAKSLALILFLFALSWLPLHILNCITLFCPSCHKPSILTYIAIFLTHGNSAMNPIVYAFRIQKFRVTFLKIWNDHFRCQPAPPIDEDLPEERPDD
Conditions: read-out: Ki, A1R

Compound: COc1cccc(-c2c(C#N)c(N)nc(SCc3cccc(C)n3)c2C#N)c1 [[^11C]MMPD, 2-amino-4-(3-(methoxy-^11C)phenyl)-6-(((6-methylpyridin-2-yl)methyl)thio)pyridine-3,5-dicarbonitrile]
- Ki: 0.49 nM
